Results reported in patent publication US20250019382A1, “NOVEL INHIBITORS OF CYCLIN-DEPENDENT KINASES” (Origenis Gmbh, priority 2021, published 2025).

Tests used:
[1] = target: T1, CDK9/CyclinT1 (Homo sapiens, UniProt P50750); assay: CDK9/T1 ADPGlo kinase assay; type: biochemical; settings: CDK9/CyclinT1 6 nM, ATP 10 microM, PDKtide 40 microM, 120 min RT
T1 construct: purchased ProQinase/Reaction Biology, USA #0371-0345-1
Experimental: The testing compound was evaluated in 12 concentrations in a 1:3 dilution series, starting from 5microM as the highest concentration.
In a white 384 microplate (Greiner bio-one, Austria #784904,) with 2 microL of 3-fold concentrated CDK9/CyclinT1 (ProQinase/Reaction Biology, USA #0371-0345-1, LOT.: 012), final concentration (f.c.) 6 nM, in 1×kinase buffer, 2 microL of compound (3× fold concentrated in f.c. 1.66% DMSO/H2O) was added and incubated at Room Temperature (RT) for 10 min. Then 2 microL of Substrate/ATP-Mix (3×PDKtide f.c. 40 microM, SignalChem Biotech, Canada via Biozol, Eching, Germany #P10-58, LOT.: L2230-7 and 3×UltraPure ATP f.c. 10 microM (ADP Glo Kinase assay, Promega GmbH, Germany #V9102)) were added, mixed and incubated for 120 min at RT.
After incubation time, 5 microL of ADP Glo reagent (ready to use, ADP Glo Kinase assay, Promega GmbH, Germany #V9102) were added, mixed and incubated for 40 min at RT.
In the last step, 10 microL of ADP Glo Detection reagent (ready to use, ADP Glo Kinase assay, Promega GmbH, Germany #V9102) were added, mixed and incubated for 30 min at RT.
GloMax Discover GM3000 Reader (Promega GmbH, Germany 9700000249) was used for the readout.
The inhibitor concentration was plotted against the luminescence to determine the IC50 using XLFit 5.5 (IDBS, Guildford) to fit to a sigmoidal dose response curve with a variable slope.

[2] = target: T2, CDK2/cyclin A1 (Homo sapiens, UniProt P24941); assay: CDK2/cyclin A1 LanthaScreen (SelectScreen); type: binding; settings: first list; duplicate, averaged
T2 construct: purchased Invitrogen Ltd., Paisley, UK (SelectScreen service)
Experimental: (§1) The CDK2 inhibitory activity of the compounds of the invention was measured in combination with different […] and assay systems. The SelectScreen™ assessment of the kinase inhibitory activity of CDK2 data point was performed in duplicate and averaged data is reported here. The SelectScreen™ kinase inhibitor assay service was used (Invitrogen Ltd., Paisley, UK) to investigate the ability of the compounds of the invention to inhibit CDK2 in dose dependent manner using ten inhibitor concentrations from 10 micromolar down to […] in half-logarithmic steps. The inhibitor concentration was plotted against the percent inhibition or displacement to determine the IC50 using XLFit 5.5 (IDBS, Guildford) to fit to a sigmoidal dose response curve with a variable slope.

[3] = target: T3, CDK2/cyclin A (Homo sapiens, UniProt P24941); assay: CDK2/cyclin A Z'-LYTE (SelectScreen); type: biochemical; settings: duplicate, averaged
T3 construct: purchased Invitrogen Ltd., Paisley, UK (SelectScreen service)
Experimental: as §1

[4] = target: T4, CDK2/cyclin E1 (Homo sapiens, UniProt P24941); assay: CDK2/cyclin E1 LanthaScreen (SelectScreen); type: binding; settings: duplicate, averaged
T4 construct: purchased Invitrogen Ltd., Paisley, UK (SelectScreen service)
Experimental: as §1

[5] = target: T2, CDK2/cyclin A1; assay: CDK2/cyclin A1 LanthaScreen (SelectScreen), second list; type: binding; settings: second list under the same heading; duplicate, averaged
Experimental: as §1

T1 sequence (P50750 whole entry): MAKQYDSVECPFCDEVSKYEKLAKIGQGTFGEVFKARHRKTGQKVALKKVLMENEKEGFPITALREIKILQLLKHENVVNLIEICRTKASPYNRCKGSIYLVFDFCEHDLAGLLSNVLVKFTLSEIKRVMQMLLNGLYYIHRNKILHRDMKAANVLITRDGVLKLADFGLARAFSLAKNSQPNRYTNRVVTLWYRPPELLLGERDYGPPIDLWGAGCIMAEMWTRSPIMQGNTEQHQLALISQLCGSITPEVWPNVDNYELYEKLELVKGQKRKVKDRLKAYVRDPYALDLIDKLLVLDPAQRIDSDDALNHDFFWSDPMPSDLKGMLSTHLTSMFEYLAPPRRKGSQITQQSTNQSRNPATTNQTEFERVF
T1 sequence (O60563 whole entry partner): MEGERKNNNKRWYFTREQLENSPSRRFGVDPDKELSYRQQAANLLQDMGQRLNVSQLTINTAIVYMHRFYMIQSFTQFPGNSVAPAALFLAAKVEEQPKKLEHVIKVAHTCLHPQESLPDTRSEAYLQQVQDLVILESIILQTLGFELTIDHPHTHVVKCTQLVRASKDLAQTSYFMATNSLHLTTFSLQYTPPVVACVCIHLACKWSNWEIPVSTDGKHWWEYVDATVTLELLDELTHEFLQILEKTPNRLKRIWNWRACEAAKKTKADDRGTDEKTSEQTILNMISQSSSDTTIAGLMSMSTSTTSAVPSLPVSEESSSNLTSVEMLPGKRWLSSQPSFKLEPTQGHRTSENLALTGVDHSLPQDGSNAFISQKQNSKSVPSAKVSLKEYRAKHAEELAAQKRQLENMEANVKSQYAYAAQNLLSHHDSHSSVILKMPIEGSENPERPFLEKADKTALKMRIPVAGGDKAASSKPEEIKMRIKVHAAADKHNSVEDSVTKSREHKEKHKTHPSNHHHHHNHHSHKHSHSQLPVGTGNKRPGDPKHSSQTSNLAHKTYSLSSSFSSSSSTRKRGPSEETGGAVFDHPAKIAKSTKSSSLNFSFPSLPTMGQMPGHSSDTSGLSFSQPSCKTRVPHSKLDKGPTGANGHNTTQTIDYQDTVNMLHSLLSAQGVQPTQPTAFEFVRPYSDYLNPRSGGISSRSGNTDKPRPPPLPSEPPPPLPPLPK

IC50 [1] [nM]	Compound	other results
< 20	FCCN[C@H]1CC[C@H](Nc2nc(-c3c(F)cccc3F)nc3c(Cl)cnn23)CC1 [Example #126, (1r,4r)-N1-(8-chloro-2-(2,6-difluorophenyl)pyrazolo[1,5-a][1,3,5]triazin-4-yl)-N4-(2-fluoroethyl)cyclohexane-1,4-diamine]	IC50 [2]: < 200 nM; IC50 [3]: < 200 nM; IC50 [4]: < 200 nM; IC50 [5]: < 200 nM
< 20	CN(C)[C@H]1CC[C@H](Nc2nc(-c3c(F)cccc3F)nc3c(Cl)cnn23)CC1 [Example #109, (1r,4r)-N1-(8-chloro-2-(2,6-difluorophenyl)pyrazolo[1,5-a][1,3,5]triazin-4-yl)-N4,N4-dimethylcyclohexane-1,4-diamine]	IC50 [2]: < 1000 nM; IC50 [3]: < 1000 nM; IC50 [4]: < 200 nM; IC50 [5]: < 200 nM
< 20	Fc1cccc(F)c1-c1nc(N[C@H]2CC[C@H](N3CCCCC3)CC2)n2ncc(Cl)c2n1 [Example #110, 8-chloro-2-(2,6-difluorophenyl)-N-((1r,4r)-4-(piperidin-1-yl)cyclohexyl)pyrazolo[1,5-a][1,3,5]triazin-4-amine]	IC50 [2]: < 200 nM; IC50 [3]: < 1000 nM; IC50 [4]: < 200 nM; IC50 [5]: < 200 nM
< 200	C=CCCN1CCC(n2cc(Nc3nc(-c4c(F)cccc4F)nc4ccnn34)cn2)CC1 [Example #87, N-(1-(1-(but-3-en-1-yl)piperidin-4-yl)-1H-pyrazol-4-yl)-2-(2,6-difluorophenyl)pyrazolo[1,5-a][1,3,5]triazin-4-amine]	
< 20	Fc1cccc(F)c1-c1nc(N[C@H]2CC[C@H](N3CCOCC3)CC2)n2ncc(Br)c2n1 [Example #95, 8-bromo-2-(2,6-difluorophenyl)-N-((1r,4r)-4-morpholinocyclohexyl)pyrazolo[1,5-a][1,3,5]triazin-4-amine]	
< 20	CN1CCN([C@H]2CC[C@H](Nc3nc(-c4c(F)cccc4F)nc4c(Cl)cnn34)CC2)CC1 [Example #144, 8-chloro-2-(2,6-difluorophenyl)-N-((1r,4r)-4-(4-methylpiperazin-1-yl)cyclohexyl)pyrazolo[1,5-a][1,3,5]triazin-4-amine]	
< 200	CN(C)C1CCC(Nc2nc(-c3c(F)cc(F)cc3F)nc3c(Cl)cnn23)CC1 (centres unmarked) [Example #131, (1r,4r)-N1-(8-chloro-2-(2,4,6-trifluorophenyl)pyrazolo[1,5-a][1,3,5]triazin-4-yl)-N4,N4-dimethylcyclohexane-1,4-diamine]	
< 20	Fc1cccc(F)c1-c1nc(Nc2cnn(C3CCNCC3)c2)n2ncc(Cl)c2n1 [Example #103, 8-chloro-2-(2,6-difluorophenyl)-N-(1-(piperidin-4-yl)-1H-pyrazol-4-yl)pyrazolo[1,5-a][1,3,5]triazin-4-amine]	
< 200	FCCN1CCC(n2cc(Nc3nc(-c4c(F)cccc4F)nc4ccnn34)cn2)CC1 [Example #81, 2-(2,6-difluorophenyl)-N-(1-(1-(2-fluoroethyl)piperidin-4-yl)-1H-pyrazol-4-yl)pyrazolo[1,5-a][1,3,5]triazin-4-amine]	
< 1000	CCNC(=O)c1ccc(Nc2nc(-c3c(F)cccc3F)nc3ccnn23)cc1 [Example #28, 4-((2-(2,6-difluorophenyl)pyrazolo[1,5-a][1,3,5]triazin-4-yl)amino)-N-ethylbenzamide]	
< 1000	CC(C)(C#N)n1cc(Nc2nc(-c3c(F)cccc3Cl)nc3ccnn23)cn1 [Example #36, 2-(4-((2-(2-chloro-6-fluorophenyl)pyrazolo[1,5-a][1,3,5]triazin-4-yl)amino)-1H-pyrazol-1-yl)-2-methylpropanenitrile]	
< 1000	CN1CCN(C2CCN(c3ccc(Nc4nc(-c5ccccc5F)nc5ccnn45)cc3)CC2)CC1 [Example #59, 2-(2-fluorophenyl)-N-(4-(4-(4-methylpiperazin-1-yl)piperidin-1-yl)phenyl)pyrazolo[1,5-a][1,3,5]triazin-4-amine]	
< 1000	O=C(NCC(F)(F)F)c1ccc(Nc2nc(-c3c(F)cccc3Cl)nc3ccnn23)cc1 [Example #22, 4-((2-(2-chloro-6-fluorophenyl)pyrazolo[1,5-a][1,3,5]triazin-4-yl)amino)-N-(2,2,2-trifluoroethyl)benzamide]	
< 200	Cc1cnn2c(Nc3cnn(C4CCN(C5CCOCC5)CC4)c3)nc(-c3c(F)cccc3F)nc12 [Example #77, 2-(2,6-difluorophenyl)-8-methyl-N-(1-(1-(tetrahydro-2H-pyran-4-yl)piperidin-4-yl)-1H-pyrazol-4-yl)pyrazolo[1,5-a][1,3,5]triazin-4-amine]	
< 20	Fc1cccc(F)c1-c1nc(Nc2cnn(C3CCN(C4CCOCC4)CC3)c2)n2ncc(Cl)c2n1 [Example #92, 8-chloro-2-(2,6-difluorophenyl)-N-(1-(1-(tetrahydro-2H-pyran-4-yl)piperidin-4-yl)-1H-pyrazol-4-yl)pyrazolo[1,5-a][1,3,5]triazin-4-amine]	
< 200	Fc1cccc(F)c1-c1nc(Nc2cnn(C3CCN(C4CC4)CC3)c2)n2ncc(Cl)c2n1 [Example #99, 8-chloro-N-(1-(1-cyclopropylpiperidin-4-yl)-1H-pyrazol-4-yl)-2-(2,6-difluorophenyl)pyrazolo[1,5-a][1,3,5]triazin-4-amine]	
< 1000	CCNC(=O)c1ccc(Nc2nc(-c3c(F)cccc3Cl)nc3ccnn23)cc1 [Example #24, 4-((2-(2-chloro-6-fluorophenyl)pyrazolo[1,5-a][1,3,5]triazin-4-yl)amino)-N-ethylbenzamide]	
< 200	Fc1cccc(F)c1-c1nc(NC2CCC(N3CCOCC3)CC2)n2ncc(C(F)(F)F)c2n1 (centres unmarked) [Example #111, 2-(2,6-difluorophenyl)-N-((1r,4r)-4-morpholinocyclohexyl)-8-(trifluoromethyl)pyrazolo[1,5-a][1,3,5]triazin-4-amine]	
< 200	CN1CCC(N2CCC(n3cc(Nc4nc(-c5c(F)cccc5F)nc5c(Cl)cnn45)cn3)CC2)CC1 [Example #96, 8-chloro-2-(2,6-difluorophenyl)-N-(1-(1′-methyl-[1,4′-bipiperidin]-4-yl)-1H-pyrazol-4-yl)pyrazolo[1,5-a][1,3,5]triazin-4-amine]	
< 1000	CC(=O)N1CCN(c2ccc(Nc3nc(-c4c(F)cccc4F)nc4ccnn34)cc2)CC1 [Example #39, 1-(4-(4-((2-(2,6-difluorophenyl)pyrazolo[1,5-a][1,3,5]triazin-4-yl)amino)phenyl)piperazin-1-yl)ethan-1-one]	
< 200	Cc1cc(F)c(-c2nc(NC3CCC(N(C)C)CC3)n3ncc(Cl)c3n2)c(F)c1 (centres unmarked) [Example #132, (1r,4r)-N1-(8-chloro-2-(2,6-difluoro-4-methylphenyl)pyrazolo[1,5-a][1,3,5]triazin-4-yl)-N4,N4-dimethylcyclohexane-1,4-diamine]	
< 200	N[C@@H]1CC[C@H](Nc2nc(-c3c(F)cccc3F)nc3c(Cl)cnn23)C1 [Example #125, (1S,3R)-N1-(8-chloro-2-(2,6-difluorophenyl)pyrazolo[1,5-a][1,3,5]triazin-4-yl)cyclopentane-1,3-diamine]	
< 20	N[C@@H]1CC[C@@H](Nc2nc(-c3c(F)cccc3F)nc3c(Cl)cnn23)C1 [Example #116, (1R,3R)-N1-(8-chloro-2-(2,6-difluorophenyl)pyrazolo[1,5-a][1,3,5]triazin-4-yl)cyclopentane-1,3-diamine]	
< 1000	COC(=O)N1CCC(n2cc(Nc3nc(-c4c(F)cccc4F)nc4ccnn34)cn2)CC1 [Example #82, methyl-4-(4-((2-(2,6-difluorophenyl)pyrazolo[1,5-a][1,3,5]triazin-4-yl)amino)-1H-pyrazol-1-yl)piperidine-1-carboxylate]	
< 1000	Fc1cccc(F)c1-c1nc(N[C@H]2CC[C@@H](N3CCCCC3)CC2)n2ncc(Cl)c2n1 [Example #113, 8-chloro-2-(2,6-difluorophenyl)-N-((1s,4s)-4-(piperidin-1-yl)cyclohexyl)pyrazolo[1,5-a][1,3,5]triazin-4-amine]	
< 200	Fc1cccc(F)c1-c1nc(N[C@H]2CC[C@H](N3CCOCC3)CC2)n2ncc(I)c2n1 [Example #140, 2-(2,6-difluorophenyl)-8-iodo-N-((1r,4r)-4-morpholinocyclohexyl)pyrazolo[1,5-a][1,3,5]triazin-4-amine]	
